These results are taken from US10323022B2, “Pyrrolidinyl urea, pyrrolidinyl thiourea and pyrrolidinyl guanidine compounds as TrkA kinase inhibitors” (Array BioPharma Inc., priority 2011, dated 2019).

A word on the IC50: it is the concentration that gives 50% inhibition. The low end stands for higher potency, the high end for lower potency.

Sequence of TrkA (P04629 33-796): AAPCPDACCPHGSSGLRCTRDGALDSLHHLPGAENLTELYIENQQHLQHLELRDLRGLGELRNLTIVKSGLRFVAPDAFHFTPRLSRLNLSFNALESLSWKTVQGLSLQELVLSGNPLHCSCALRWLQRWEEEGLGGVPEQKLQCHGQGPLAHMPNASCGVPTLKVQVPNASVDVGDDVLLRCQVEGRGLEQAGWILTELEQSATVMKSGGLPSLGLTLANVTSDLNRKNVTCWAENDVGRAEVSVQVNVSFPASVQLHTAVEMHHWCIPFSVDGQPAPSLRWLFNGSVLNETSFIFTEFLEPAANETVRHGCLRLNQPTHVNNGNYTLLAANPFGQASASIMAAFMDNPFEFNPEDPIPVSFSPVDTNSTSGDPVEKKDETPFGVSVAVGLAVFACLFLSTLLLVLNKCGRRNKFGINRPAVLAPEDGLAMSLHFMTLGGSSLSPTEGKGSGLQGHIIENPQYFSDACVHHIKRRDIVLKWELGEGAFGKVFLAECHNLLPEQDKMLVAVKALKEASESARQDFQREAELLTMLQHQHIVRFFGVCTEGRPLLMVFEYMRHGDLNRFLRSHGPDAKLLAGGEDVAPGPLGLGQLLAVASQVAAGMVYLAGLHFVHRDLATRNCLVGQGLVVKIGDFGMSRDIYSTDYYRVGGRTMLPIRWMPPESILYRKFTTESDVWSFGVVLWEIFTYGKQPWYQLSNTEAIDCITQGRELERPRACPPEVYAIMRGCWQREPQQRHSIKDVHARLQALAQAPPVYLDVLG

For this assay, the target named is TrkA (Homo sapiens (Human), UniProt P04629). Nature of the assay: TrkA Omnia Assay. It counts as biochemical. The following applies: averaged IC50; 20 nM enzyme, 500 μM ATP, 10 μM peptide substrate. In a few lines:
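Recombinant TrkA (20 nM) preincubated 10 min at ambient temperature with compound, then Omnia Tyr Peptide #4 (10 μM) and ATP (500 μM) added in 25 mM MOPS pH 7.5, 5 mM MgCl2, 0.005% Triton X-100. Fluorescence (ex 360/em 485 nm) followed continuously for 70 min; IC50 from initial rates by 4- or 5-parameter logistic fit.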
With `O=C(Nc1c2c(nn1-c1ccccc1)CCC2)N[C@@H]1CN(Cc2csnn2)C[C@H]1c1ccc(F)c(F)c1` [Example 248, 1-((3S,4R)-1-((1,2,3-thiadiazol-4-yl)methyl)-4-(3,4-difluorophenyl)pyrrolidin-3-yl)-3-(2-phenyl-2,4,5,6-tetrahydrocyclopenta[c]pyrazol-3-yl)urea], the IC50 was less than 100 nM. As to `COCCN1C[C@@H](NC(=O)Nc2c3c(nn2-c2ccccc2)CCC3)[C@H](c2cccc(F)c2)C1` [Example 116, 1-((3S,4R)-4-(3-fluoro-phenyl)-1-(2-methoxy-ethyl)pyrrolidin-3-yl)-3-(2-phenyl-2,4,5,6-tetrahydrocyclopenta [c]pyrazol-3-yl)urea], the IC50 was less than 100 nM. On to `COCCN1C[C@@H](NC(=O)Nc2c3c(nn2-c2ccccc2)CCC3)[C@H](c2nccs2)C1` (stereo in doubt) [Example 49, 1-(1-(2-methoxyethyl)-4-(thiazol-2-yl)pyrrolidin-3-yl)-3-(2-phenyl-2,4,5,6-tetrahydrocyclopenta[c]pyrazol-3-yl)urea], for which the IC50 lay in the range of 1000 to 10000 nM. `COCCN1C[C@@H](NC(=O)Nc2cc(C(C)(C)C)nn2-c2ccc(F)cc2)[C@H](c2ccccc2)C1` (relative stereo) [Example 8, 1-(3-tert-butyl-1-(4-fluorophenyl)-1H-pyrazol-5-yl)-3-(trans-1-(2-methoxyethyl)-4-phenyl-pyrrolidin-3-yl)urea]: the IC50 lay in the range of 100 to 1000 nM. In the case of `COCCN1C[C@@H](NC(=O)Nc2c(C)c(OCCN3C(=O)c4ccccc4C3=O)nn2-c2ccccc2)[C@H](c2ccc(F)c(F)c2)C1` [Example 387, 1-((3S,4R)-4-(3,4-difluorophenyl)-1-(2-methoxyethyl)pyrrolidin-3-yl)-3-(3-(2-(1,3-dioxoisoindolin-2-yl)ethoxy)-4-methyl-1-phenyl-1H-pyrazol-5-yl)urea], the IC50 was less than 100 nM.

`COCCN1C[C@@H](NC(=O)Nc2c(C)c(-c3cnc(N)nc3)nn2-c2ccccc2)[C@H](c2ccc(F)c(F)c2)C1` [Example 512, 1-(3-(2-aminopyrimidin-5-yl)-4-methyl-1-phenyl-1H-pyrazol-5-yl)-3-((3S,4R)-4-(3,4-difluorophenyl)-1-(2-methoxyethyl)pyrrolidin-3-yl)urea] displayed an IC50 of less than 100 nM. In turn, `COCCN1C[C@@H](NC(=O)Nc2cc(-c3cnc(C)cn3)nn2C)[C@H](c2ccc(F)c(F)c2)C1` [Example 152, 1-((3S,4R)-4-(3,4-difluorophenyl)-1-(2-methoxyethyl)pyrrolidin-3-yl)-3-(1-methyl-3-(5-methylpyrazin-2-yl)-1H-pyrazol-5-yl)urea] registered an IC50 of less than 100 nM.

Turning to `COCCN1C[C@@H](NC(=O)Nc2cc(-c3ccncc3)nn2C)[C@H](c2ccccc2)C1` [Example 96, 1-((3S,4R)-1-(2-methoxy-ethyl)-4-phenylpyrrolidin-3-yl)-3-(1-methyl-3-(pyridin-4-yl)-1H-pyrazol-5-yl)urea], the IC50 is less than 100 nM. In turn, `COCCN1C[C@@H](NC(=O)Nc2c(F)c(-c3cnn(C)c3)nn2-c2ccccc2)[C@H](c2cc(F)cc(F)c2)C1` [Example 439, 1-((3S,4R)-4-(3,5-difluorophenyl)-1-(2-methoxyethyl)pyrrolidin-3-yl)-3-(4-fluoro-1′-methyl-1-phenyl-1H,1′H-[3,4′-bipyrazol]-5-yl)urea] displayed an IC50 of less than 100 nM. For `COCCN1CC(c2ccccc2)[C@H](NC(=O)Nc2c(-c3ccccc3)nn3ccccc23)C1` (stereo partly drawn) [Example 634], the IC50 is less than 100 nM.

In turn, `CCOc1nn(-c2ccccc2)c(NC(=O)N[C@@H]2CN(C(C)COC)C[C@H]2c2ccc(F)c(F)c2)c1C` (stereo partly drawn) [Example 255, 1-((3S,4R)-4-(3,4-difluorophenyl)-1-(1-methoxypropan-2-yl)pyrrolidin-3-yl)-3-(3-ethoxy-4-methyl-1-phenyl-1H-pyrazol-5-yl)urea] yielded an IC50 of less than 100 nM. Take `COCCN1C[C@@H](NC(=O)Nc2c(Cl)c([C@@H]3CCCN3C(=O)OC(C)(C)C)nn2-c2ccccc2)[C@H](c2ccc(F)c(F)c2)C1` [Example 573, (S)-tert-butyl 2-(4-chloro-5-(3-((3S,4R)-4-(3,4-difluorophenyl)-1-(2-methoxyethyl)pyrrolidin-3-yl)ureido)-1-phenyl-1H-pyrazol-3-yl)pyrrolidine-1-carboxylate]: the IC50 was 100 to 1000 nM. As for `COCCN1C[C@@H](NC(=O)Nc2cc(C(F)(F)F)nn2-c2ccccc2)[C@H](c2ccccc2)C1` [Example 53, 1-((3S,4R)-1-(2-methoxyethyl)-4-phenylpyrrolidin-3-yl)-3-(1-phenyl-3-(trifluoromethyl)-1H-pyrazol-5-yl)urea], the IC50 was less than 100 nM. For `COCCN1C[C@@H](NC(=O)Nc2c3c(nn2C2CCCCC2)CCC3)[C@H](c2ccc(F)c(F)c2)C1` [Example 150, 1-(2-cyclohexyl-2,4,5,6-tetrahydrocyclopenta [c]pyrazol-3-yl)-3-((3S,4R)-4-(3,4-difluorophenyl)-1-(2-methoxyethyl)pyrrolidin-3-yl)urea], the IC50 was less than 100 nM. Compound `CCOc1nn(-c2ccccc2)c(NC(=O)N[C@@H]2CN(c3ccccc3F)C[C@H]2c2ccccc2)c1C` [Example 234, 1-(3-ethoxy-4-methyl-1-phenyl-1H-pyrazol-5-yl)-3-((3S,4R)-1-(2-fluorophenyl)-4-phenylpyrrolidin-3-yl)urea] showed an IC50 of 100 to 1000 nM. Consider `COCCN1C[C@@H](NC(=O)Nc2c3c(nn2-c2ccccc2)CSC3)[C@H](c2ccc(F)c(F)c2)C1` [Example 91, 1-((3S,4R)-4-(3,4-difluoro-phenyl)-1-(2-methoxyethyl)pyrrolidin-3-yl)-3-(2-phenyl-4,6-dihydro-2H-thieno[3,4-c]pyrazol-3-yl) urea], for which the IC50 is less than 100 nM. In the case of `COCCN1C[C@@H](NC(=O)Nc2c3c(nn2-c2ccccc2)CN(C(C)=O)C3)[C@H](c2ccccc2)C1` [Example 159, 1-(5-acetyl-2-phenyl-2,4,5,6-tetrahydropyrrolo[3,4-c]pyrazol-3-yl)-3-((3S,4R)-1-(2-methoxyethyl)-4-phenylpyrrolidin-3-yl)urea], the IC50 is 100 to 1000 nM. In the case of `COCCN1C[C@@H](NC(=O)Nc2c(Cl)c(OC[C@@H](C)O)nn2-c2ccccc2)[C@H](c2ccc(F)cc2)C1` [Example 374, 1-(4-chloro-3-((R)-2-hydroxypropoxy)-1-phenyl-1H-pyrazol-5-yl)-3-((3S,4R)-4-(4-fluorophenyl)-1-(2-methoxyethyl)pyrrolidin-3-yl)urea], the IC50 was less than 100 nM. With `COCCN1C[C@@H](NC(=O)Nc2c(C)c(OCc3ccc(OC)cc3)nn2-c2ccccc2)[C@H](c2ccc(F)c(F)c2)C1` [Example 142, 1-((3S,4R)-4-(3,4-difluoro-phenyl)-1-(2-methoxyethyl)pyrrolidin-3-yl)-3-(3-(4-methoxybenzyloxy)-4-methyl-1-phenyl-1H-pyrazol-5-yl)urea], the IC50 was less than 100 nM. Next, `COCCN1C[C@@H](NC(=O)Nc2c(Cl)c([C@H]3C[C@@H](O)C3)nn2-c2ccccc2)[C@H](c2ccc(F)c(F)c2)C1` [Example 452, 1-(4-chloro-3-(cis-3-hydroxvcyclobutyl)-1-phenyl-1H-pyrazol-5-yl)-3-((3S,4R)-4-(3,4-difluorophenyl)-1-(2-methoxyethyl)pyrrolidin-3-yl)urea]: less than 100 nM; `COCCN1C[C@@H](NC(=O)Nc2cc(C3CC3)nn2-c2ccccc2)[C@H](c2ccccc2)C1` (relative stereo) [Example 9, 1-(3-cyclopropyl-1-phenyl-1H-pyrazol-5-yl)-3-(trans-1-(2-methoxyethyl)-4-phenylpyrrolidin-3-yl)urea]: less than 100 nM.
